Columns and labels:
Settings in all cases: binder
JNK3 = JNK3 (Homo sapiens, UniProt P53779)
AKT3 = AKT3 (Homo sapiens, UniProt Q9Y243)
FLT1 = FLT1 (Homo sapiens, UniProt P17948)
MELK = MELK (Homo sapiens, UniProt Q14680)
CaMK2d = CaMK2d (Homo sapiens, UniProt Q13557)
FGFR1 = FGFR1 (Homo sapiens, UniProt P11362)
BRPF1 = target: T1, BRPF1 (Homo sapiens, UniProt P55201)
T1 sequence (P55201 1-1214): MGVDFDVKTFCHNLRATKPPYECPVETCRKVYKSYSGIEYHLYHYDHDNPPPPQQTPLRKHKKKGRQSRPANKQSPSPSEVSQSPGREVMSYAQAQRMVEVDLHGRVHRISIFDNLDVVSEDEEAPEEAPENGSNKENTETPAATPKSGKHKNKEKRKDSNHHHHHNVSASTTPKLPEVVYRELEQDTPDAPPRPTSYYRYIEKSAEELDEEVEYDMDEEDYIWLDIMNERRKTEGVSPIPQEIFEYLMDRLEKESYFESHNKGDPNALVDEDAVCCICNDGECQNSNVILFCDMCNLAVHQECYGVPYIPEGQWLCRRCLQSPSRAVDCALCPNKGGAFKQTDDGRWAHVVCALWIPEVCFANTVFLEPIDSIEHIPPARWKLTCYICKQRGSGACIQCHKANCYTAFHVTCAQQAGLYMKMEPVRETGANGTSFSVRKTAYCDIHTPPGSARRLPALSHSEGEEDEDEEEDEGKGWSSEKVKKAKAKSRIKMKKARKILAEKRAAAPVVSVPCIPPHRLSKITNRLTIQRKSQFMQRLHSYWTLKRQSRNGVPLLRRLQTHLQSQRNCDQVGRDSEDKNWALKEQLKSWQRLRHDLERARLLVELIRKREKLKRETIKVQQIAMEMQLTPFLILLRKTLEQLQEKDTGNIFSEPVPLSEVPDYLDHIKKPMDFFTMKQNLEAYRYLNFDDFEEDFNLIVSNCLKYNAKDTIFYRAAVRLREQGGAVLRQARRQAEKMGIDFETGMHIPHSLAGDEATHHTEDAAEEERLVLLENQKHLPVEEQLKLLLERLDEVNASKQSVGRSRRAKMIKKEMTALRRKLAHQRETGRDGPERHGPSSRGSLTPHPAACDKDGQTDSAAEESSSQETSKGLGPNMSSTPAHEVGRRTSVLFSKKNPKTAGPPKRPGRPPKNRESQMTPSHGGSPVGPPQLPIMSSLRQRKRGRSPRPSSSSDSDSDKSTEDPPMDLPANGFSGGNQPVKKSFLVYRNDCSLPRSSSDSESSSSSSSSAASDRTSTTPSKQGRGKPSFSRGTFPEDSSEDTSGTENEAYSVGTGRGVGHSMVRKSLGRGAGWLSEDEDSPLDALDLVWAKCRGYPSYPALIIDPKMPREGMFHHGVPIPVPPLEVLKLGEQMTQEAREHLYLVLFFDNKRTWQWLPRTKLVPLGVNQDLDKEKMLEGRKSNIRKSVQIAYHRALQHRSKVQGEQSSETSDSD

JNK1 = JNK1 (Homo sapiens, UniProt P45983)
Sequence of JNK1 (P45983 whole entry): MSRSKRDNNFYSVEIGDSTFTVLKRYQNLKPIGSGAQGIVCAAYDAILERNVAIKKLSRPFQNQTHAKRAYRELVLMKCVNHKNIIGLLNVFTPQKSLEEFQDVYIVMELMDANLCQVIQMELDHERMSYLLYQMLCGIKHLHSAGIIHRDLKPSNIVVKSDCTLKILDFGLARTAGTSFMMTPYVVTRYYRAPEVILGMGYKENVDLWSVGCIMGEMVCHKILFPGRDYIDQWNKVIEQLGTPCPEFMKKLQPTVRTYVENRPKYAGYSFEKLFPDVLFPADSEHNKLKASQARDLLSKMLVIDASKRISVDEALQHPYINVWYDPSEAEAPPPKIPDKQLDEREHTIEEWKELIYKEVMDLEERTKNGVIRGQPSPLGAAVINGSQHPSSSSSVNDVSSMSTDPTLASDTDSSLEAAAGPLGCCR

MER = target: T2, MER (Homo sapiens, UniProt Q12866)
T2 sequence (Q12866 1-999): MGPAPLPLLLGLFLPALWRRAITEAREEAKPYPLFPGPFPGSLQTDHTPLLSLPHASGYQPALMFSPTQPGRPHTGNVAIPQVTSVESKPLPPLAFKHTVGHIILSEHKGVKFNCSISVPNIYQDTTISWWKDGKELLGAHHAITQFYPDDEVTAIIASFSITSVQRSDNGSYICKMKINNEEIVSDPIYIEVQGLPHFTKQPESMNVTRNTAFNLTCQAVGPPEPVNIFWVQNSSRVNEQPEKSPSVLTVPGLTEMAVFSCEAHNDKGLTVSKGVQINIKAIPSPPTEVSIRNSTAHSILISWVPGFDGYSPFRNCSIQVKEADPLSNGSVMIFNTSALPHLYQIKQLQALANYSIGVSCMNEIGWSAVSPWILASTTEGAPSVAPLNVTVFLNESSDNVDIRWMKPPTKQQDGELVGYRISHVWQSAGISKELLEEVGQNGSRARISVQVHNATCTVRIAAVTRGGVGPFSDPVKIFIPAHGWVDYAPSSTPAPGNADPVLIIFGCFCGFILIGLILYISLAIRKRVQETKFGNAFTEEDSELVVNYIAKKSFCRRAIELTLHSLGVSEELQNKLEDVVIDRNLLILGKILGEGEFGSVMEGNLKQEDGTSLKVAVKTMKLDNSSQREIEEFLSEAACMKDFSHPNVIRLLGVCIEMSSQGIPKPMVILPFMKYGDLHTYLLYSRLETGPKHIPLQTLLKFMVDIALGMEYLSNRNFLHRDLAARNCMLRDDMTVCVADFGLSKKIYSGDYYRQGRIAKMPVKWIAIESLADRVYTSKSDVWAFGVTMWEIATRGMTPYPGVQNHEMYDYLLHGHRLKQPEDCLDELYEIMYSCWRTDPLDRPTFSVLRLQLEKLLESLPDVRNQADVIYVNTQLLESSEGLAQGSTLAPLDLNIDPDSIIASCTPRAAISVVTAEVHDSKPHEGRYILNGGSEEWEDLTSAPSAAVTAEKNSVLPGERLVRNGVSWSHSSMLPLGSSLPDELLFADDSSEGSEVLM

ABL1 = ABL1 (Homo sapiens, UniProt P00519)
Sequence of ABL1 (P00519 whole entry): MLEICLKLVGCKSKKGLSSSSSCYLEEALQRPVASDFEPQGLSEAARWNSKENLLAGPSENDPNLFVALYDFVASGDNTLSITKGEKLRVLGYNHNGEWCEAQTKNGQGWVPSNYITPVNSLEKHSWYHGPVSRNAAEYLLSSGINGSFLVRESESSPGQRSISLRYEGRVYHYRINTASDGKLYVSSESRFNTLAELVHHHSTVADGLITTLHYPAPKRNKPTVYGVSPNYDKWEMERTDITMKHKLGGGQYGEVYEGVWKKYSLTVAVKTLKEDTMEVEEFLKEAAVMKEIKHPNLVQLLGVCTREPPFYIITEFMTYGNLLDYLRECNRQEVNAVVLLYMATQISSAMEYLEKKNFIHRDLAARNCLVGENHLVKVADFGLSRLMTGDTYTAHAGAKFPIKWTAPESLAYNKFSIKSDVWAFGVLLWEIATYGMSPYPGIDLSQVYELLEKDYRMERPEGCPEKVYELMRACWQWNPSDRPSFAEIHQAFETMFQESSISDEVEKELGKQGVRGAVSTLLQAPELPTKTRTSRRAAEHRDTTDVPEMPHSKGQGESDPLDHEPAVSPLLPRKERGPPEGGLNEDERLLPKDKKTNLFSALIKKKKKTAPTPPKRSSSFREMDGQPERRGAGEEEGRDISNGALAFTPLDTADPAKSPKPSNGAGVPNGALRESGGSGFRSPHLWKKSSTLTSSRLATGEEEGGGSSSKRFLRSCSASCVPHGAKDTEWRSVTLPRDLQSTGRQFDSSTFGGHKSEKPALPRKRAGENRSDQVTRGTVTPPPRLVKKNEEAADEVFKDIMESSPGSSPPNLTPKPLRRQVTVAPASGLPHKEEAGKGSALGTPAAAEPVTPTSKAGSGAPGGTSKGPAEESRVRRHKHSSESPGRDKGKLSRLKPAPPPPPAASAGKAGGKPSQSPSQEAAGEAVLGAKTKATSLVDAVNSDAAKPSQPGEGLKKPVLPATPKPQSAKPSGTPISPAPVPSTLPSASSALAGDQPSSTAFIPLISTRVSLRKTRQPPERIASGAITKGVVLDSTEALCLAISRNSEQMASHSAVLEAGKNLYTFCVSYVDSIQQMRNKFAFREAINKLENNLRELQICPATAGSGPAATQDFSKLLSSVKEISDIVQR

Sequence of JNK3 (P53779 whole entry): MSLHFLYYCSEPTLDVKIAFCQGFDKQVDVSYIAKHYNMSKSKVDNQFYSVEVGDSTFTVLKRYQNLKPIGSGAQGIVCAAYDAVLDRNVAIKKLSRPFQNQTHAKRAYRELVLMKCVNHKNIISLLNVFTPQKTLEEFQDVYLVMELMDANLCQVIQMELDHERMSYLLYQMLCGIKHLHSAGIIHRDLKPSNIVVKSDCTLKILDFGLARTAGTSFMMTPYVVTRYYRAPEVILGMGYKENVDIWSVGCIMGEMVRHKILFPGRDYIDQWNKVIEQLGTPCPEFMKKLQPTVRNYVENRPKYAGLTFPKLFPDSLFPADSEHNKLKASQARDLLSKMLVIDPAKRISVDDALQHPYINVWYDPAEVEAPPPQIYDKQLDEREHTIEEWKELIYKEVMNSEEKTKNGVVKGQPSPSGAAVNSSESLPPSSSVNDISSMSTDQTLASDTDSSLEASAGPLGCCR
Sequence of CaMK2d (Q13557 whole entry): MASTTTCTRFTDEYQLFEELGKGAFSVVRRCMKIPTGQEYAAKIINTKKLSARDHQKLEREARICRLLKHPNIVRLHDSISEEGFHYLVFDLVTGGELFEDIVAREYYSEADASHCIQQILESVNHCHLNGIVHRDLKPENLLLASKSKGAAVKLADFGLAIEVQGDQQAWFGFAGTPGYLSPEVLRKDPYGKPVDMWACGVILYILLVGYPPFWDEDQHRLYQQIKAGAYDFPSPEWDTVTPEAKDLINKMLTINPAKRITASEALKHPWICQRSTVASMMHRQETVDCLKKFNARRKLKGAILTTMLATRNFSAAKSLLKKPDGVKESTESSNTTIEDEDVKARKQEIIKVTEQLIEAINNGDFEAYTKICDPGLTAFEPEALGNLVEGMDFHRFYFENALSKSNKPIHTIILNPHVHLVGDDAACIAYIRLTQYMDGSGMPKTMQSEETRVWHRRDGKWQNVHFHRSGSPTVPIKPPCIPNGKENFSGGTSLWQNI
Sequence of MELK (Q14680 whole entry): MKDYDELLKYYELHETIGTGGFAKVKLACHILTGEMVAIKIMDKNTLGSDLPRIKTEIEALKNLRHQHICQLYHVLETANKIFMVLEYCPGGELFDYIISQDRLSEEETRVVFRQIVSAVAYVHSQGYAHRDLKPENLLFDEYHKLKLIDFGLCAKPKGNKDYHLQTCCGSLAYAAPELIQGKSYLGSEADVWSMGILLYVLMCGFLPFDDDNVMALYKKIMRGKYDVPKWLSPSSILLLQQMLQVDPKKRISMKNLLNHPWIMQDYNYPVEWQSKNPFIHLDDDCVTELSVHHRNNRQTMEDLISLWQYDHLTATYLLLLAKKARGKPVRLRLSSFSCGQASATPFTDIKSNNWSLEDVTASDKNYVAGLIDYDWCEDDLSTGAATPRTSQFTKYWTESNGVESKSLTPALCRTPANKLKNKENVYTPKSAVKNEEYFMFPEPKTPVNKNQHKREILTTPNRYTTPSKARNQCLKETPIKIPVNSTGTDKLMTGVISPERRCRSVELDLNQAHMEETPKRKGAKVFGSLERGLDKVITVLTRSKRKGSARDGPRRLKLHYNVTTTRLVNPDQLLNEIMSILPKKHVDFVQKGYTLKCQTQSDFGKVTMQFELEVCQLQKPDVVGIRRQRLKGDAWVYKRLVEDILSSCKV
Sequence of FGFR1 (P11362 whole entry): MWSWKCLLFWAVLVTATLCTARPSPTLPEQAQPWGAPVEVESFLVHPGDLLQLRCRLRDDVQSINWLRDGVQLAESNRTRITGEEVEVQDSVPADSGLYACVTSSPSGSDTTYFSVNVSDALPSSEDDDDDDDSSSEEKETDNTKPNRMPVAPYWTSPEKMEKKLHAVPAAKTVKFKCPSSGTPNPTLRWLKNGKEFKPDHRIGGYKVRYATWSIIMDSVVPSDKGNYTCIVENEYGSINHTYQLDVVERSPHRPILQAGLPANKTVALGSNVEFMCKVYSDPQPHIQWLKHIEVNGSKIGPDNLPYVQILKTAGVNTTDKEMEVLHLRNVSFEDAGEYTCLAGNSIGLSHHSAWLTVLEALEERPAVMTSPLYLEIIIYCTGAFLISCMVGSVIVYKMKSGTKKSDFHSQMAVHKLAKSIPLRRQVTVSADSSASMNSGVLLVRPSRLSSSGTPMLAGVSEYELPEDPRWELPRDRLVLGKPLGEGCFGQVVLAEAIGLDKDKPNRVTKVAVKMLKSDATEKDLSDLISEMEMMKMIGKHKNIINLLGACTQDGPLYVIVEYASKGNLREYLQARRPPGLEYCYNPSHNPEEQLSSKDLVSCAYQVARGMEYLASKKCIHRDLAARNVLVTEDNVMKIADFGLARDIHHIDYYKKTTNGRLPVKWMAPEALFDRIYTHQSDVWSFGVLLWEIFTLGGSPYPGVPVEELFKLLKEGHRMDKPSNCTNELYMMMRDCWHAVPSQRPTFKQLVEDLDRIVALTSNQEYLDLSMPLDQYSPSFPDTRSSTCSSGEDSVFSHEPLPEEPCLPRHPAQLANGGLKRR
Sequence of AKT3 (Q9Y243 whole entry): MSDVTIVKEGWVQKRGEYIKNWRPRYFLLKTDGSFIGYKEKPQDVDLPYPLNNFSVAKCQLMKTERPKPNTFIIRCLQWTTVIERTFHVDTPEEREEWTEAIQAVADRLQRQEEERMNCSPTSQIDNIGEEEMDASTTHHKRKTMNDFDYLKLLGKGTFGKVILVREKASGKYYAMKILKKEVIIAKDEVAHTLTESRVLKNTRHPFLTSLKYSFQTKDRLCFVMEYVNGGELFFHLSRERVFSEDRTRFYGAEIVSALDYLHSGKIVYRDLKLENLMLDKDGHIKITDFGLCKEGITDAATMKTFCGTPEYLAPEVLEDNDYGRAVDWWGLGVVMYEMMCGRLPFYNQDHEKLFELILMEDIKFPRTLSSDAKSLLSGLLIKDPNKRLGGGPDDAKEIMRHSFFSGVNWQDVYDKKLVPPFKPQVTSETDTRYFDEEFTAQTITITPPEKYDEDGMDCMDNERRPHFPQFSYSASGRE

Cc1cccc(-c2ccc(-c3cc4cnc(NCCCN5CCCC5=O)nc4n(CCCCN)c3=O)c(Cl)c2)n1 [compound 27, MR30]
ΔTm MR30 (27) (JNK3): 1.7 °C | ΔTm MR30 (27) (AKT3): 0.9 °C | ΔTm MR30 (27) (FLT1): 2.4 °C | ΔTm MR30 (27) (MELK): 5.8 °C | ΔTm MR30 (27) (CaMK2d): -0.5 °C | ΔTm MR30 (27) (FGFR1): 0.2 °C | ΔTm MR30 (27) (BRPF1): -1.8 °C | ΔTm MR30 (27) (JNK1): 0.4 °C | ΔTm MR30 (27) (MER): 0.7 °C | ΔTm MR30 (27) (ABL1): 3.0 °C

Cc1cccc(-c2ccc(-c3cc4cnc(Nc5cc(C(F)(F)F)ccc5C)nc4n(CCCCN)c3=O)c(Cl)c2)n1 [compound 28, 8-(4-Aminobutyl)-6-(2-chloro-4-(6-methylpyridin-2-yl)phenyl)-2-((2-methyl-5-(trifluoromethyl)phenyl)amino)pyrido[2,3-d]pyrimidin-7(8H)-one]
ΔTm 28 (JNK3): 3.5 °C | ΔTm 28 (AKT3): 0.3 °C | ΔTm 28 (FLT1): 7.8 °C | ΔTm 28 (MELK): 1.8 °C | ΔTm 28 (CaMK2d): -0.4 °C | ΔTm 28 (FGFR1): 1.1 °C | ΔTm 28 (BRPF1): -1.6 °C | ΔTm 28 (JNK1): 2.8 °C | ΔTm 28 (MER): 0.1 °C | ΔTm 28 (ABL1): 6.9 °C

Cc1cccc(-c2ccc(-c3cc4cnc(NCCCN5CCNCC5)nc4n(CCCCN)c3=O)c(Cl)c2)n1 [compound 29, 8-(4-Aminobutyl)-6-(2-chloro-4-(6-methylpyridin-2-yl)phenyl)-2-((3-(piperazin-1-yl)propyl)amino)pyrido[2,3-d]pyrimidin-7(8H)-one]
ΔTm 29 (JNK3): 0.8 °C | ΔTm 29 (AKT3): 0.8 °C | ΔTm 29 (FLT1): 3.9 °C | ΔTm 29 (MELK): 6.5 °C | ΔTm 29 (CaMK2d): -0.1 °C | ΔTm 29 (FGFR1): 0.7 °C | ΔTm 29 (BRPF1): -1.2 °C | ΔTm 29 (JNK1): 0.7 °C | ΔTm 29 (MER): 1.0 °C | ΔTm 29 (ABL1): 4.0 °C

Cc1cccc(-c2ccc(-c3cc4cnc(Nc5ccc(CCCO)cc5)nc4n(CCCCN)c3=O)c(Cl)c2)n1 [compound 30, 8-(4-Aminobutyl)-6-(2-chloro-4-(6-methylpyridin-2-yl)phenyl)-2-((4-(3-hydroxypropyl)phenyl)amino)pyrido[2,3-d]pyrimidin-7(8H)-one]
ΔTm 30 (JNK3): 4.6 °C | ΔTm 30 (AKT3): 4.3 °C | ΔTm 30 (FLT1): 4.3 °C | ΔTm 30 (MELK): 7.8 °C | ΔTm 30 (CaMK2d): 0.1 °C | ΔTm 30 (FGFR1): 1.0 °C | ΔTm 30 (BRPF1): -4.4 °C | ΔTm 30 (JNK1): 2.8 °C | ΔTm 30 (MER): 3.1 °C | ΔTm 30 (ABL1): 10.3 °C

Cc1cccc(-c2ccc(-c3cc4cnc(Nc5ccc(O)cc5)nc4n(CCCCN)c3=O)c(Cl)c2)n1 [compound 31, 8-(4-Aminobutyl)-6-(2-chloro-4-(6-methylpyridin-2-yl)phenyl)-2-((4-hydroxyphenyl)amino) pyrido[2,3-d]pyrimidin-7(8H)-one]
ΔTm 31 (JNK3): 4.7 °C | ΔTm 31 (AKT3): 4.2 °C | ΔTm 31 (FLT1): 5.6 °C | ΔTm 31 (MELK): 6.5 °C | ΔTm 31 (CaMK2d): -0.1 °C | ΔTm 31 (FGFR1): 1.5 °C | ΔTm 31 (BRPF1): -3.4 °C | ΔTm 31 (JNK1): 2.7 °C | ΔTm 31 (MER): 3.3 °C | ΔTm 31 (ABL1): 10.6 °C

Cc1cccc(-c2ccc(-c3cc4cnc(Nc5ccc(C)c(O)c5)nc4n(CCCCN)c3=O)c(Cl)c2)n1 [compound 32, 8-(4-Aminobutyl)-6-(2-chloro-4-(6-methylpyridin-2-yl)phenyl)-2-((3-hydroxy-4-methylphenyl)amino)pyrido[2,3-d]pyrimidin-7(8H)-one]
ΔTm 32 (JNK3): 4.5 °C | ΔTm 32 (AKT3): 3.6 °C | ΔTm 32 (FLT1): 5.6 °C | ΔTm 32 (MELK): 7.2 °C | ΔTm 32 (CaMK2d): 0.0 °C | ΔTm 32 (FGFR1): 2.0 °C | ΔTm 32 (BRPF1): -1.4 °C | ΔTm 32 (JNK1): 1.9 °C | ΔTm 32 (MER): 2.8 °C | ΔTm 32 (ABL1): 10.8 °C
